pEC50: −log10 of the molar value.
Key:
Plasmodium falciparum [1] = experiment: NOVARTIS: Inhibition of Plasmodium falciparum W2 (drug-resistant) proliferation in erythrocyte-based infection assay; type: functional, organism-based; settings: Plasmodium falciparum, W2; read-out: EC50
[2] = NOVARTIS: Cytotoxicity against human hepatocellular carcinoma cell line (Huh7); type: toxicity, cell-based, Huh-7; settings: Huh7 cells (hepatocellular carcinoma cell line)
Plasmodium falciparum [3] = experiment: NOVARTIS: Inhibition of Plasmodium falciparum 3D7 (drug-susceptible) proliferation in erythrocyte-based infection assay; type: functional, organism-based; settings: Plasmodium falciparum, 3D7

## N#CN=C(N)c1sc(Nc2ccccc2)nc1N
Plasmodium falciparum [1]
  pEC50: 5.62
[2]
  CC50: 9370 nM
Plasmodium falciparum [3]
  pEC50: 6.09

## Cc1cccc(NC(=O)Nc2cccnc2)c1NC(=O)Nc1cccnc1
Plasmodium falciparum [1]
  pEC50: < 5.98
[2]
  CC50: > 10000 nM
Plasmodium falciparum [3]
  pEC50: < 5.90

## CC(=O)N(C1=C(N2CCCCCC2)C(=O)c2ccccc2C1=O)C1CCCCC1
Plasmodium falciparum [1]
  pEC50: 7.03
[2]
  CC50: 30200 nM
Plasmodium falciparum [3]
  pEC50: 6.86

## CCOC(=O)C1=C(C)N=c2sc(=Cc3ccccc3OCc3ccccc3)c(=O)n2C1c1ccccc1OC(C)C (configuration not stated)
Plasmodium falciparum [1]
  pEC50: < 4.90
[2]
  CC50: > 100000 nM
Plasmodium falciparum [3]
  pEC50: 5.01

## CC(C)COc1ccc(C(=O)N/C(=C/c2ccccc2)C(N)=O)cc1
Plasmodium falciparum [1]
  pEC50: < 6.21
[2]
  CC50: > 10000 nM
Plasmodium falciparum [3]
  pEC50: < 5.90

## CCC(c1nc2cc(Cl)ccc2c(=O)n1CC)N(CC)C(=O)c1ccc2ccccc2c1 (configuration not stated)
Plasmodium falciparum [1]
  pEC50: 5.91
[2]
  CC50: > 10000 nM
Plasmodium falciparum [3]
  pEC50: < 5.91

## Cc1c(NC(=S)N2CCOCC2)c(=O)n(-c2ccccc2)n1C
Plasmodium falciparum [1]
  pEC50: < 5.90
[2]
  CC50: > 10000 nM
Plasmodium falciparum [3]
  pEC50: < 6.04

## CC1=C(CCN(CCCN(C)C)CCCN(C)C)C(C)(C)CCC1
Plasmodium falciparum [1]
  pEC50: 6.30
[2]
  CC50: 7660 nM
Plasmodium falciparum [3]
  pEC50: 6.71

## Cc1cc(N2CCCCC2)nc2ccc(NC(=O)c3cncc(Br)c3)cc12
Plasmodium falciparum [1]
  pEC50: < 5.90
[2]
  CC50: > 10000 nM
Plasmodium falciparum [3]
  pEC50: 5.87

## N#CC(=Cc1cn(Cc2ccc(Cl)cc2Cl)c2ccccc12)c1nc2ccccc2[nH]1
Plasmodium falciparum [1]
  pEC50: 5.99
[2]
  CC50: > 100000 nM
Plasmodium falciparum [3]
  pEC50: 6.57

## N=c1c2ccccc2nnn1-c1cccc(C(F)(F)F)c1
Plasmodium falciparum [1]
  pEC50: 6.51
[2]
  CC50: > 10000 nM
Plasmodium falciparum [3]
  pEC50: 6.87

## O=C(Nc1ccc2c3c(cccc13)CC2)c1cccc2ccccc12
Plasmodium falciparum [1]
  pEC50: < 5.90
[2]
  CC50: > 10000 nM
Plasmodium falciparum [3]
  pEC50: < 5.92

## Cc1cccc(CC(=O)N2CCC[C@@H]3CN(C(=O)CCc4cccnc4)CC[C@@H]32)c1
Plasmodium falciparum [1]
  pEC50: 6.50
[2]
  CC50: > 10000 nM
Plasmodium falciparum [3]
  pEC50: < 5.90

## CCCCCCCCCCCCOCCCNC(=O)c1cccc(N)c1
Plasmodium falciparum [1]
  pEC50: < 5.81
[2]
  CC50: > 10000 nM
Plasmodium falciparum [3]
  pEC50: 5.80

## CN(C)c1ccc(C=C2C(=O)NC(=O)N(Cc3ccccc3Cl)C2=O)cc1
Plasmodium falciparum [1]
  pEC50: 5.81
[2]
  CC50: > 100000 nM
Plasmodium falciparum [3]
  pEC50: < 4.90

## COc1ccc(NC(=O)c2cnn(-c3ccccc3)c2NC(=O)c2ccco2)cc1
Plasmodium falciparum [1]
  pEC50: 5.49
[2]
  CC50: > 100000 nM
Plasmodium falciparum [3]
  pEC50: 5.10

## COc1ccc(C)cc1Nc1nc(N)c2cc(OC)c(OC)cc2n1
Plasmodium falciparum [1]
  pEC50: 5.69
[2]
  CC50: > 10000 nM
Plasmodium falciparum [3]
  pEC50: 6.01

## Cc1cc(/C=C2\SC(=Nc3ccccc3)N(C3CCCCC3)C2=O)c(C)n1-c1ccc(Br)cc1
Plasmodium falciparum [1]
  pEC50: < 6.27
[2]
  CC50: > 10000 nM
Plasmodium falciparum [3]
  pEC50: 6.32

## CCC(=O)NCc1nc2ccccc2n1Cc1ccc(C)cc1
Plasmodium falciparum [1]
  pEC50: < 5.01
[2]
  CC50: > 100000 nM
Plasmodium falciparum [3]
  pEC50: < 4.90

## Nc1cccc(Oc2ccc3c(c2)C(=O)N(c2cccc(C(=O)O)c2)C3=O)c1
Plasmodium falciparum [1]
  pEC50: < 6.56
[2]
  CC50: > 10000 nM
Plasmodium falciparum [3]
  pEC50: < 5.90

## COc1ccc(/C=C/c2ccc3ccccc3[n+]2C)cc1
Plasmodium falciparum [1]
  pEC50: 7.52
[2]
  CC50: > 10000 nM
Plasmodium falciparum [3]
  pEC50: 6.88

## COc1ccc(-c2cc(C(=O)NCc3cccnc3)no2)cc1OC
Plasmodium falciparum [1]
  pEC50: 5.77
[2]
  CC50: > 10000 nM
Plasmodium falciparum [3]
  pEC50: < 5.89

## O=C(Oc1ccccc1N1C(=O)C2C3C=CC(C3)C2C1=O)c1ccc([N+](=O)[O-])cc1 (configuration not stated)
Plasmodium falciparum [1]
  pEC50: 5.09
[2]
  CC50: > 100000 nM
Plasmodium falciparum [3]
  pEC50: < 5.01

## COc1ccc2[nH]c(SCC(=O)Nc3cccc(NC(=O)CSc4nc5cc(OC)ccc5[nH]4)n3)nc2c1
Plasmodium falciparum [1]
  pEC50: 7.02
[2]
  CC50: > 51000 nM
Plasmodium falciparum [3]
  pEC50: 6.91

## Cc1ccc2nc3c(c(NCCCN(C)C)c2c1)CCC3
Plasmodium falciparum [1]
  pEC50: 5.81
[2]
  CC50: > 10000 nM
Plasmodium falciparum [3]
  pEC50: 6.03

## O=C(Cc1ccccc1)N1CCOc2c(cc(-c3csc4ccccc34)cc2OCCc2ccccn2)C1
Plasmodium falciparum [1]
  pEC50: 6.78
[2]
  CC50: > 100000 nM
Plasmodium falciparum [3]
  pEC50: 6.59

## COc1cccc(C(Nc2cc(C)ccn2)c2ccc3cccnc3c2O)c1 (configuration not stated)
Plasmodium falciparum [1]
  pEC50: 6.25
[2]
  CC50: > 93500 nM
Plasmodium falciparum [3]
  pEC50: 5.95

## CCN1CCC(Nc2ccnc3cc4ccccc4cc23)CC1
Plasmodium falciparum [1]
  pEC50: 6.32
[2]
  CC50: > 10000 nM
Plasmodium falciparum [3]
  pEC50: 7.09

## Cc1cc(/C=C2/SC(=Nc3ccccc3)NC2=O)c(C)n1-c1cccc([N+](=O)[O-])c1
Plasmodium falciparum [1]
  pEC50: 6.25
[2]
  CC50: > 10000 nM
Plasmodium falciparum [3]
  pEC50: 6.40

## CN1C=CC=CC1=CC=C1C=Nc2ccccc21
Plasmodium falciparum [1]
  pEC50: 6.63
[2]
  CC50: 20900 nM
Plasmodium falciparum [3]
  pEC50: 6.63

## CC[n+]1c(/C=C(C)/C=C2\Sc3ccccc3N2CCO)sc2ccccc21
Plasmodium falciparum [1]
  pEC50: 5.78
[2]
  CC50: > 10000 nM
Plasmodium falciparum [3]
  pEC50: < 5.90

## CC(C)OC(=O)NC(Nc1ccccc1)C(Cl)(Cl)Cl (configuration not stated)
Plasmodium falciparum [1]
  pEC50: < 5.97
[2]
  CC50: > 10000 nM
Plasmodium falciparum [3]
  pEC50: < 5.97

## COc1ccc(Nc2ncnc3[nH]c(-c4cccc([N+](=O)[O-])c4)cc23)cc1
Plasmodium falciparum [1]
  pEC50: 5.60
[2]
  CC50: > 100000 nM
Plasmodium falciparum [3]
  pEC50: 5.60

## CCOC(=O)c1c(NC(=O)CSc2nnc(CNC(=O)c3cccs3)n2-c2ccccc2OC)sc2c1CCC2
Plasmodium falciparum [1]
  pEC50: < 6.01
[2]
  CC50: > 10000 nM
Plasmodium falciparum [3]
  pEC50: < 6.21
